From patent publication US9718762B2, “Insecticidal compounds” (Syngenta Participations AG, priority 2013, dated 2017)

Legend:
Format in all cases: in vivo
Plutella xylostella = Plutella xylostella (diamond back moth) artificial diet test; details: 144 h, 200 ppm (concentration in well 18 ppm), L2 larvae, 6 days, larval mortality, growth regulation
Method: (§1) Plutella xylostella (Diamond Back Moth): 24-well microtiter plate (MTP) with artificial diet was treated with test solutions at an application rate of 200 ppm (concentration in well 18 ppm) by pipetting. After drying, the MTP's were infested with L2 larvae (7-12 per well). After an incubation period of 6 days, samples were checked for larval mortality and growth regulation.

Thrips tabaci = Thrips tabaci (onion thrips) sunflower leaf disc spray test; details: foliar, 168 h, 200 ppm spray on sunflower leaf discs, population of mixed ages, 7 days, mortality
Method: (§2) Thrips tabaci (Onion Thrips): Sunflower leaf discs were placed on agar in a 24-well microtiter plate and sprayed with test solutions at an application rate of 200 ppm. After drying, the leaf discs were infested with an […] population of mixed ages. After an incubation period of 7 days, samples were checked for mortality.

Diabrotica balteata = Diabrotica balteata (corn root worm) artificial diet test; details: 120 h, 200 ppm (concentration in well 18 ppm), L2 larvae, 5 days, larval mortality, growth regulation
Method: as §1, with “Diabrotica balteata (Corn Root Worm): A” for “Plutella xylostella (Diamond Back Moth):”, “(6-10” for “(7-12”, “5” for “6”

Myzus persicae = Myzus persicae (green peach aphid) sunflower leaf disc spray test; details: foliar, 144 h, 200 ppm spray on sunflower leaf discs, aphid population of mixed ages, 6 DAT, mortality
Method: as §2, with “Myzus persicae (Green Peach Aphid):” for “Thrips tabaci (Onion Thrips):”, “6 DAT,” for “7 days,”

Tetranychus urticae = Tetranychus urticae (two-spotted spider mite) bean leaf disc spray test; details: foliar, 192 h, 200 ppm spray on bean leaf discs, mite populations of mixed ages, 8 days, egg, larval and adult mortality
Source text: Tetranychus urticae (Two-Spotted Spider Mite): Bean leaf discs on agar in 24-well microtiter plates were sprayed with test solutions at an application rate of 200 ppm. After drying, the leaf discs are infested with mite populations of mixed ages. 8 days later, discs are checked for egg mortality, larval mortality, and adult mortality.

Heliothis virescens = Heliothis virescens (tobacco budworm) egg test on artificial diet; details: 96 h, 200 ppm (concentration in well 18 ppm), eggs on artificial diet, 4 days, egg mortality, larval mortality, growth regulation
Method: Heliothis virescens (Tobacco Budworm): Eggs (0-24 h old) were placed in 24-well microtiter plate on artificial diet and treated with test solutions at an application rate of 200 ppm (concentration in well 18 ppm) by pipetting. After an incubation period of 4 days, samples were checked for egg mortality, larval mortality, and growth regulation.

Spodoptera littoralis = Spodoptera littoralis (Egyptian cotton leafworm) cotton leaf disc spray test; details: foliar, 72 h, 200 ppm spray on cotton leaf discs, L1 larvae, 3 days after treatment, mortality, feeding behavior, growth regulation
Source text: Spodoptera littoralis (Egyptian Cotton Leafworm): Cotton leaf discs were placed on agar in a 24-well microtiter plate and sprayed with test solutions at an application rate of 200 ppm. After drying, the leaf discs were infested with 5 L1 larvae. The samples were checked for mortality, feeding behavior, and growth regulation 3 days after treatment (DAT).

Measured: pest or weed control at 200 ppm

CCc1cc(C(F)(C(F)(F)F)C(F)(F)F)cc(Cl)c1NC(=O)c1cccc(N(CC)C(=O)c2ccc(C#N)cc2)c1OC [Compound 12]
≥ 80%: all assays above

COc1c(C(=O)Nc2c(Cl)cc(C(F)(C(F)(F)F)C(F)(F)F)cc2Cl)cccc1N(C)C(=O)c1ccc(C#N)cc1 [Compound 7]
≥ 80%: all assays above

COc1c(C(=O)Nc2c(Cl)cc(C(F)(C(F)(F)F)C(F)(F)F)cc2Br)cccc1N(C)C(=O)c1ccc(C#N)cc1 [Compound 4]
≥ 80%: all assays above

CCc1cc(C(F)(C(F)(F)F)C(F)(F)F)cc(Cl)c1NC(=O)c1cccc(N(C)C(=O)c2ccc(C#N)cc2)c1OC [Compound 11]
≥ 80%: all assays above

CCc1cc(C(F)(C(F)(F)F)C(F)(F)F)cc(C)c1NC(=O)c1cccc(N(CC)C(=O)c2ccc(C#N)cc2)c1OC [Compound 3]
≥ 80%: all assays above

CCN(C(=O)c1ccc(C#N)cc1)c1cccc(C(=O)Nc2c(Br)cc(C(F)(C(F)(F)F)C(F)(F)F)cc2Br)c1OC [Compound 5]
≥ 80%: all assays above

CCN(C(=O)c1ccc(C#N)cc1)c1cccc(C(=O)Nc2c(Cl)cc(C(F)(C(F)(F)F)C(F)(F)F)cc2Br)c1OC [Compound 1, N-[2-bromo-6-chloro-4-[1,1,1,2,3,3,3-heptafluoro-prop-2-yl]phenyl]-3-[(4-cyanobenzoyl)-ethyl-amino]-2-methoxy-benzamide]
≥ 80%: all assays above

COc1c(C(=O)Nc2c(Br)cc(C(F)(C(F)(F)F)C(F)(F)F)cc2Br)cccc1N(C)C(=O)c1ccc(C#N)cc1 [Compound 6]
≥ 80%: all assays above

CCc1cc(C(F)(C(F)(F)F)C(F)(F)F)cc(CC)c1NC(=O)c1cccc(N(CC)C(=O)c2ccc(C#N)cc2)c1OC [Compound 9]
≥ 80%: all assays above

CCN(C(=O)c1ccc(C#N)cc1)c1cccc(C(=O)Nc2c(Cl)cc(C(F)(C(F)(F)F)C(F)(F)F)cc2Cl)c1OC [Compound 2]
≥ 80%: all assays above

CCc1cc(C(F)(C(F)(F)F)C(F)(F)F)cc(Br)c1NC(=O)c1cccc(N(C)C(=O)c2ccc(C#N)cc2)c1OC [Compound 10]
≥ 80%: all assays above

CCc1cc(C(F)(C(F)(F)F)C(F)(F)F)cc(Br)c1NC(=O)c1cccc(N(CC)C(=O)c2ccc(C#N)cc2)c1 [Compound 8]
not listed: Spodoptera littoralis
≥ 80%: all other assays above
